Test results as given in patent publication US6506876B1, “LTA4 hydrolase inhibitor pharmaceutical compositions and methods of use” (G.D. Searle & Co., priority 1994, dated 2003).
Several values for one entry are separate records, joined by “and”; a condition that tells them apart may be missing. Equal entries are not always repeated.

What follows are compounds tested against T1, recombinant human LTA4 hydrolase (rhLTA4H) (Homo sapiens, UniProt P09960) (assay: Recombinant human LTA4 hydrolase assay for LTA4 hydrolase inhibitor activity). Details: Recombinant Human LTA4 Hydrolase Assay IC50 LTA4H, recombinant hLTA4H.
T1 sequence (P09960 1-611): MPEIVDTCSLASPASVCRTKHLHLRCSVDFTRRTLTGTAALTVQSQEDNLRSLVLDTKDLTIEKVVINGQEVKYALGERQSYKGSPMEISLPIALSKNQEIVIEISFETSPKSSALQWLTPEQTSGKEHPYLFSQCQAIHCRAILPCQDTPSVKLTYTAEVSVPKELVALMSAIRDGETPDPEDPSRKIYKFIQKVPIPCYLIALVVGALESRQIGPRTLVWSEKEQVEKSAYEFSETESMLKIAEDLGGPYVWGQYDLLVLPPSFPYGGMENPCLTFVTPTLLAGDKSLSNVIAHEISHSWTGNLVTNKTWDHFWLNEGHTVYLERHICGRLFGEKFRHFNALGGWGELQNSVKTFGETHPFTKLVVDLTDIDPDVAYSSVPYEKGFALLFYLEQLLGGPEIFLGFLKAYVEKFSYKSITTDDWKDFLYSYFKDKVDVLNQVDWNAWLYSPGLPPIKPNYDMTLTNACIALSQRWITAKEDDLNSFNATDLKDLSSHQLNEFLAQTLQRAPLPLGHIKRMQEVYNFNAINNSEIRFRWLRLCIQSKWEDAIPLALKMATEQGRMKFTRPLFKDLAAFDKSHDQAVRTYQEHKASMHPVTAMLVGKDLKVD
Method: One or more predetermined amounts of a compound of the invention were incubated in assay buffer (0.1 M potassium phosphate, 5 mg/ml fatty acid free BSA, 10% DMSO, pH 7.4) for 10 minutes at room temperature with 250 ng of recombinant hLTA4H to allow binding, if any, between the enzyme and inhibitor. The stock enzyme solution was 1 mg/ml LTA4 hydrolase, 50 mM Tris, pH 8.0, 150 mM NaCl, 2.5 mM beta-mercaptoethanol, 50% glycerol. […] Each reaction was carried out at room temperature for 10 minutes. The reaction was stopped by diluting 25 μl of the reaction mixture with 500 μl of the assay buffer without DMSO. LTB4 was quantified in the diluted sample by a commercially available enzyme-linked immunoassay [Caymen Chemical Co., Ann Arbor, Mich.] using the method recommended in the manufacturer's instructions and compared to the amount of LTB4 produced in a negative control (i.e., essentially identical conditions except without addition of an inhibitor compound). The IC50 was routinely calculated from the data produced.

Compound	IC50
C[C@@H]1C[C@H](C(N)=O)CCN1CCOc1ccc(Cc2ccccc2)cc1 (relative stereo) [Example 297]	120 nM
CC(=O)N[C@@H]1CCN(CCOc2ccc(Cc3ccccc3)cc2)[C@@H](C)C1 (relative stereo) [Example 467]	60 nM
COC(=O)CC1CC2CC1N(CCOc1ccc(Cc3ccccc3)cc1)C2 (stereo not shown) [Example 307]	440 nM
CCOC(=O)C1CCN(CCOc2ccc(Cc3ccsc3)cc2)CC1 [Example 313]	25000 nM
COc1ccc(Cc2ccc(OCCN3CCC(C(N)=O)CC3)cc2)cc1F [Example 314]	1500 nM
COC(=O)CCN(C)CCCOc1ccc(Cc2ccc(F)cc2)cc1 [Example 332]	14000 nM
O=C(O)C1CCN(CCOc2ccc(Cc3ccccc3)s2)CC1 [Example 371]	860 nM
CC(CN1CCCCC1)Oc1ccc(Cc2ccccc2)cc1 (stereo not shown) [Example 403]	750 nM
C=CCN(CCCOc1ccc(Cc2ccccc2)cc1)CCC(=O)OCc1ccccc1 [Example 409]	12000 nM
C=CCN(CCCCOc1ccc(Cc2ccccc2)cc1)CCC(=O)OCC [Example 410, Ethyl [[4-[4-(Phenylmethyl)phenoxyl]-butyl](2-propenyl)amino]propanoate]	33000 nM
CN(CCCOc1ccc(Cc2ccccc2)cc1)CCC(=O)OCc1ccccc1 [Example 411]	2400 nM
CCOC(=O)CCN(C)CCCCOc1ccc(Cc2ccccc2)cc1 [Example 415]	5000 nM
CC(CN(C)CCCOc1ccc(Cc2ccccc2)cc1)C(=O)OCc1ccccc1 (stereo not shown) [Example 417]	4300 nM
CN(CCCOc1ccc(Cc2ccccc2)cc1)CC(C)(C)C(=O)OCc1ccccc1 [Example 418]	12000 nM
NC(=O)CCNC(=O)C1CCN(CCOc2ccc(Cc3ccccc3)cc2)CC1 [Example 421]	410 nM
NC(=O)CCNCCCOc1ccc(Cc2ccccc2)cc1 [Example 423]	330 nM
O=C(O)C1CCN(CCOc2ccc(Cc3cccc(F)c3)cc2)CC1 [Example 436]	720 nM
O=C(O)C1CCN(CCOc2ccc(Cc3ccc(F)cc3)cc2)CC1 [Example 438]	3200 nM
O=C(O)C1CCN(CCOc2ccc(Cc3ccsc3)cc2)CC1 [Example 439]	18000 nM
COC(=O)C1CC2CC1CN2CCOc1ccc(Cc2ccccc2)cc1 (stereo not shown) [Example 440]	30 nM
CC1CC(C(N)=NO)CCN1CCOc1ccc(Cc2ccccc2)cc1 (stereo not shown) [Example 445]	330 nM
CS(=O)(=O)N1CCN(CCOc2ccc(Cc3ccccc3)cc2)CC1 [Example 460]	84000 nM
COC(=O)C1CC2CC1CN(CCOc1ccc(Cc3ccccc3)cc1)C2 (stereo not shown) [Example 504]	29 nM

The next lines start with the values.

IC50	Compound
300 nM	C[C@H]1C[C@@H](O)CCN1CCOc1ccc(Cc2ccccc2)cc1 (relative stereo) [Example 465]
140 nM	c1ccc(Cc2ccc(OCCCn3cnc4ncccc43)cc2)cc1 [341 B]
1900 nM	c1ccc(COc2ccc(OCCn3cnc4ncccc43)cc2)cc1 [346 B]
1800 nM	c1ccc(COc2ccc(OCCn3cnc4ccncc43)cc2)cc1 [347 A]
1900 nM	c1ccc(COc2ccc(OCCn3cnc4cnccc43)cc2)cc1 [347 B]
5 nM	c1ccc(COc2ccc(OCCn3ccc4ncnc-4c3)cc2)cc1 [347 C]
4600 nM	c1ccc(Oc2ccc(OCCn3cnc4cccnc43)cc2)cc1 [348 A]
440 nM	c1ccc(Oc2ccc(OCCn3cnc4ncccc43)cc2)cc1 [348 B]
290 nM	c1ccc(Oc2ccc(OCCn3cccc4ncnc3-4)cc2)cc1 [348 C]
480 nM	c1ccc(Oc2ccc(OCCn3cnc4ccncc43)cc2)cc1 [349 A]
300 nM	c1ccc(Oc2ccc(OCCn3cnc4cnccc43)cc2)cc1 [349 B]
13 nM	c1ccc(Oc2ccc(OCCn3ccc4ncnc-4c3)cc2)cc1 [349 C]
2500 nM and 4200 nM	COC(=O)CNCCCOc1ccc(Cc2ccccc2)cc1 [Example 318]
970 nM	c1ccc(Cc2ccc(OCCn3ccc4ncccc43)cc2)cc1 [Example 342]
11100 nM	c1ccc(Oc2ccc(OCCn3cnc4ccccc43)cc2)cc1 [Example 344]
120 nM	c1ccc(Cc2ccc(OCCn3ccnc3)cc2)cc1 [Example 352]
36 nM	[O-][n+]1ccc2ncn(CCOc3ccc(Cc4ccccc4)cc3)c2c1 [Example 364]
11000 nM	CCOC(=O)CCN(CCCOc1ccc(Cc2ccccc2)cc1)Cc1cccnc1 [Example 414]
300 nM	CC1CC(C#N)CCN1CCOc1ccc(Cc2ccccc2)cc1 (stereo not shown) [Example 444]
140 nM	N=C(N)C1CCN(CCOc2ccc(Cc3ccccc3)cc2)CC1 [Example 449]
560 nM	NC(=S)N1CCN(CCOc2ccc(Cc3ccccc3)cc2)CC1 [Example 458]

Same assay, conditions: read-out: Recombinant Human LTA4 Hydrolase Assay, % at 3 μM

Compound	inhibition at 3 µM [%]
c1ccc(Oc2ccc(OCCCn3cnc4ccccc43)cc2)cc1 [Example 343]	40
c1ccc(COc2ccc(OCCn3cnc4ccccc43)cc2)cc1 [Example 345]	35

Same assay, conditions: read-out: Recombinant Human LTA4 Hydrolase Assay, % at 100 μM

Compound	inhibition at 100 µM [%]
CCOC(=O)C1CCN(CCOc2ccc(Cc3cccnc3)cc2)CC1 [Example 311]	44
CCOC(=O)C1CCN(CCOc2ccc(Cc3ccc(F)cc3)cc2)CC1 [Example 312]	46
O=C(CNCCOc1ccc(Cc2ccccc2)cc1)OCc1ccccc1 [Example 319]	47
C#CC(CC(=O)OCC)NCCOc1ccc(Cc2ccccc2)cc1 (stereo not shown) [Example 408]	76

What follows are compounds tested on LTB4 production in mouse blood (LTA4 hydrolase) (assay: Ex vivo LTB4 production by calcium ionophore stimulated mouse blood after oral dosing). Details: Mus musculus, po, 1 h, read-out: Murine Ex Vivo LTB4 Inhibition % I LTB4.
Assay type: in vivo
Method: Ex Vivo LTB4 and Thromboxane Production by Calcium Ionophore Stimulated Mouse Blood for LTA4 Hydrolase Inhibitor Activity
Leukotriene A4 hydrolase inhibitor compounds of the present invention were diluted to a predetermined concentration in phosphate buffered saline containing 2% DMSO and 1% Tween 80. The compounds were administered by oral gavage to adult male outbred mice weighing approximately 20-30 gm at a dose of 10 mg/kg body weight. (Compounds given at a dose of 50 mg/kg body weight are designtated in following Table by the symbol, *.) Sixty (60) minutes after administration of an LTA4 inhibitor compound of the invention, blood was collected (into heparin-containing tubes) from the retroorbital sinus. […] The mixture was incubated for 10 minutes at 37° C. in a humidified incubator. The reaction was terminated by centrifugation (833 g, 10 minutes at 4° C.). Supernatants were analyzed for LTB4 and thromboxane by commercially available enzyme-linked immunoassays (Caymen Chemical Co., Ann Arbor, Mich.] in accordance with the manufacturer's instructions. The percent inhibition was determined by comparison to animals treated identically except that the solution admininstered by oral gavage was devoid of inhibitor compound.

Compound	inhibition in vivo at 10 mg/kg [%]	inhibition in vivo at 50 mg/kg [%]
c1ccc(Oc2ccc(OCCN3CCCC3)cc2)cc1 [Example 44]	25	
c1nc(Cc2ccc(OCCN3CCCC3)cc2)cs1 [Example 49, 4-[[4-[2-(1-pyrrolidinyl)ethoxy]phenyl]methyl]thiazole]	46	
c1ccc(Cc2ccc(OCCN3CCCC3)nc2)cc1 [Example 112]		82
c1csc(Cc2ccc(OCCN3CCCC3)cc2)n1 [Example 121]	48	
c1ncc(Cc2ccc(OCCN3CCCC3)cc2)s1 [Example 122]	57	
c1cncc(Cc2ccc(OCCN3CCCC3)cc2)c1 [Example 125]	46	
c1cc(Cc2ccc(OCCN3CCCC3)cc2)cs1 [Example 134]	63	
COC(=O)CC1CC2CC1CN2CCOc1ccc(Cc2ccccc2)cc1 (stereo not shown) [Example 304]	80	
c1ccc(Cc2ccc(OCCN3CCCCC3)cc2)cc1 [Example 401]	23	
CC1CCCC(C)N1CCOc1ccc(Cc2ccccc2)cc1 (stereo not shown) [Example 402]	58	
c1ccc(Cc2ccc(OCCN3CCC(c4nnn[nH]4)CC3)cc2)cc1 [Example 450]	91	

Same assay, conditions: Mus musculus, po, 1 h; read-out: Murine Ex Vivo LTB4 Inhibition % I LTB4

Compound	inhibition in vivo at 10 mg/kg [%]
CN(CCCOc1ccc(Cc2ccc(F)cc2)cc1)CCC(=O)O [Example 336]	99
CNC(=O)C1CCN(CCOc2ccc(Cc3ccccc3)cc2)CC1 [Example 420]	93

Same assay, conditions: mouse, oral gavage, 1 hour after administration of 10 mg/kg

Compound	Murine Ex Vivo LTB4 Inhibition % I LTB4 [%]
FC(F)(c1ccccc1)c1ccc(OCCN2CCCC2)cc1 [Example 67, 1-[2-[4-[(difluoro)phenylmethyl]phenoxy]ethyl]pyrrolidine]	0

Same assay, conditions: mouse, oral gavage, 1 hour after administration of 10 mg/kg; read-out: Murine Ex Vivo LTB4 Inhibition % I LTB4

Compound	inhibition in vivo at 10 mg/kg [%]
C[C@@H]1C[C@H](C(N)=O)CCN1CCOc1ccc(Cc2ccccc2)cc1 (relative stereo) [Example 297]	63
C[C@H]1C[C@@H](O)CCN1CCOc1ccc(Cc2ccccc2)cc1 (relative stereo) [Example 465]	38
CC(=O)N[C@@H]1CCN(CCOc2ccc(Cc3ccccc3)cc2)[C@@H](C)C1 (relative stereo) [Example 467]	71
c1ccc(Cc2ccc(OCCCn3cnc4ncccc43)cc2)cc1 [341 B]	29
c1ccc(COc2ccc(OCCn3cnc4ncccc43)cc2)cc1 [346 B]	23
c1ccc(COc2ccc(OCCn3cnc4ccncc43)cc2)cc1 [347 A]	34
c1ccc(COc2ccc(OCCn3cnc4cnccc43)cc2)cc1 [347 B]	43
c1ccc(COc2ccc(OCCn3ccc4ncnc-4c3)cc2)cc1 [347 C]	52
c1ccc(Oc2ccc(OCCn3cnc4cccnc43)cc2)cc1 [348 A]	42
c1ccc(Oc2ccc(OCCn3cnc4ncccc43)cc2)cc1 [348 B]	22
c1ccc(Oc2ccc(OCCn3cccc4ncnc3-4)cc2)cc1 [348 C]	77
c1ccc(Oc2ccc(OCCn3cnc4ccncc43)cc2)cc1 [349 A]	78.5
c1ccc(Oc2ccc(OCCn3cnc4cnccc43)cc2)cc1 [349 B]	48
c1ccc(Oc2ccc(OCCn3ccc4ncnc-4c3)cc2)cc1 [349 C]	52
COC(=O)CC1CCN(CCOc2ccc(Cc3ccccc3)cc2)C1 (stereo not shown) [Example 275]	75
COC(=O)C1CCN(CCOc2ccc(Cc3ccccc3)cc2)C1 (stereo not shown) [Example 276]	75
CCOC(=O)CCN(C)CCCOc1ccc(Cc2ccccc2)cc1 [Example 412]	72
NC(=O)CC1CCN(CCOc2ccc(Cc3ccccc3)cc2)C1 (stereo not shown) [Example 426]	40
